Source: ChEMBL document CHEMBL2385047, “Synthesis and antifungal evaluation of pentyloxyl-diphenylisoxazoloyl pneumocandins and echinocandins” (Bioorg Med Chem Lett, 2013)
Converted amounts (≈) assume the structure as drawn. Numbered stars: 1 amine (or outer) side, 2 acyl side, 3 side chain; on linkers, the order of the positions; unused ones are H or OH. Bridge positions count the residues as written; N and C are the ends. Square brackets hold non-standard residues; d marks the D form. Peptide text beside a SMILES is read from it. * marks the point of attachment. Orn(4R-OH,5R-OH) = O=C([C@H](C[C@@H](O)[C@@H](O)N[*:3])N[*:1])[*:2]; Tetradecanoyl(10R,12S-Me2) = CC[C@H](C)C[C@H](C)CCCCCCCCC(=O)*; hTyr(3S-OH,4S-OH) = N[C@H](C(=O)O)[C@H](O)[C@@H](O)c1ccc(O)cc1; Gln(3R-OH) = NC(=O)C[C@@H](O)[C@H](N)C(=O)O; Pro(3S-OH) = O=C(O)[C@H]1NCC[C@@H]1O; Hyp = O=C(O)[C@@H]1C[C@@H](O)CN1

How the values were obtained:
Candida albicans [1] = experiment: Antifungal activity against caspofungin-resistant Candida albicans CLY-16996 harboring 1,3-beta-D-glucan synthase component FKS1/FKS1 S645F mutant assessed as growth inhibition after 24 hrs by NCCLS broth microdilution method; type: functional; conditions: CLY-16996, 24 h
Cryptococcus neoformans = experiment: Antifungal activity against capsular wild type Cryptococcus neoformans MY2061 assessed as growth inhibition after 24 hrs by NCCLS broth microdilution method; type: functional; conditions: MY2061, 24 h, read-out: MIC100
Candida albicans [2] = experiment: Antifungal activity against Candida albicans CAI4-R1 assessed as growth inhibition after 24 hrs by NCCLS broth microdilution method; type: functional; conditions: CAI4-R1, 24 h; for MIC: read-out: MIC100
Candida albicans [3] = experiment: Antifungal activity against Candida albicans MY1055 infected in DBA/2 mouse assessed as reduction of log CFU in kidney administered 30 mins as ip tid post infection measured after 24 hrs; type: functional
Candida albicans [4] = experiment: Antifungal activity against wild type Candida albicans CAI4 assessed as growth inhibition after 24 hrs by NCCLS broth microdilution method; type: functional; conditions: CAI4, 24 h; for MIC: read-out: MIC100
Clavispora lusitaniae = experiment: Antifungal activity against wild type Candida lusitaniae MY1396 assessed as growth inhibition after 24 hrs by NCCLS broth microdilution method; type: functional; conditions: MY1396, 24 h; for MIC: read-out: MIC100
Staphylococcus aureus = experiment: Antibacterial activity against methicillin-sensitive Staphylococcus aureus MB2865 assessed as growth inhibition after 24 hrs by NCCLS broth microdilution method; type: functional; conditions: MB2865, 24 h, read-out: MIC100
Pichia kudriavzevii = experiment: Antifungal activity against wild type Candida krusei CLY549 assessed as growth inhibition after 24 hrs by NCCLS broth microdilution method; type: functional; conditions: CLY549, 24 h; for MIC: read-out: MIC100
Candida albicans [5] = experiment: Antifungal activity against wild type Candida albicans MY1055 assessed as growth inhibition after 24 hrs by NCCLS broth microdilution method in presence of human serum; type: functional; conditions: MY1055, 24 h; for MIC: read-out: MIC100
[6] = Inhibition of caspofungin-resistant Candida albicans CLY-16997 1,3-beta-D-glucan synthase component FKS1/FKS1 S645P mutant using UDP[6,3H]-glucose as substrate after 60 mins by liquid scintillation counting analysis
Aspergillus fumigatus = experiment: Antifungal activity against Aspergillus fumigatus MF5668 caspofungin spontaneous resistance mutant assessed as growth inhibition after 24 hrs by NCCLS broth microdilution method; type: functional; conditions: MF5668, 24 h; for minimal effective concentration: read-out: MEC
Beta-1,3-glucan synthase = target: T1, Beta-1,3-glucan synthase (Candida albicans, UniProt O13383); experiment: Inhibition of wild type Candida albicans MY1055 1,3-beta-D-glucan synthase using UDP[6,3H]-glucose as substrate after 60 mins by liquid scintillation counting analysis
T1 sequence (O13383 whole entry): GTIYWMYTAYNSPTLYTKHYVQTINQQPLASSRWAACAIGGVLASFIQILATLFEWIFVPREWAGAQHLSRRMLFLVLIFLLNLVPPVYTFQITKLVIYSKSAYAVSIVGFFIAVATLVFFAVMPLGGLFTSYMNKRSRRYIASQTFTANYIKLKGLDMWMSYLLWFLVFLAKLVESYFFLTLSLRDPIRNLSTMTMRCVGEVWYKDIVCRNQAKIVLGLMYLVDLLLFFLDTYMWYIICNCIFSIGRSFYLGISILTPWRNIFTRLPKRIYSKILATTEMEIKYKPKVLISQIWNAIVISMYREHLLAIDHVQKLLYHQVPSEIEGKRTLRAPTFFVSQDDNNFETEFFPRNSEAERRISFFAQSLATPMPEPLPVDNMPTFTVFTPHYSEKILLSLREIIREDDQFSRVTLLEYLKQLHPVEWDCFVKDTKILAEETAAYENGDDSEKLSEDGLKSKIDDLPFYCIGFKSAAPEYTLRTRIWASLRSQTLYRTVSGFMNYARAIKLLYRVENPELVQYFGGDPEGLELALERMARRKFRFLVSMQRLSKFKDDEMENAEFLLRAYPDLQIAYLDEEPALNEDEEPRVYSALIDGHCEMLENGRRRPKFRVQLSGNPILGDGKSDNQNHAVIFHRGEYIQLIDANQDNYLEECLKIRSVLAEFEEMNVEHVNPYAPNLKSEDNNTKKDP

Escherichia coli = experiment: Antibacterial activity against Escherichia coli ATCC 25922 assessed as growth inhibition after 24 hrs by NCCLS broth microdilution method; type: functional; conditions: ATCC 25922, 24 h, read-out: MIC100
Candida parapsilosis = experiment: Antifungal activity against wild type Candida parapsilosis ATCC 22019 assessed as growth inhibition after 24 hrs by NCCLS broth microdilution method; type: functional; conditions: Lodderomyces parapsilosis, ATCC 22019, 24 h; for MIC: read-out: MIC100
Candida albicans [7] = experiment: Antifungal activity against wild type Candida albicans MY1055 assessed as growth inhibition after 24 hrs by NCCLS broth microdilution method; type: functional; conditions: MY1055, 24 h; for MIC: read-out: MIC100
Candida albicans [8] = experiment: Antifungal activity against Candida albicans NR3 assessed as growth inhibition after 24 hrs by NCCLS broth microdilution method; type: functional; conditions: NR3, 24 h; for MIC: read-out: MIC100
[9] = system: Meyerozyma guilliermondii; experiment: Antifungal activity against wild type Candida guilliermondii CLY308 assessed as growth inhibition after 24 hrs by NCCLS broth microdilution method; type: functional; conditions: CLY308, 24 h; for MIC: read-out: MIC100
[10] = Inhibition of caspofungin-resistant Candida albicans CLY-16996 1,3-beta-D-glucan synthase component FKS1/FKS1 S645F mutant using UDP[6,3H]-glucose as substrate after 60 mins by liquid scintillation counting analysis
Nakaseomyces glabratus = experiment: Antifungal activity against wild type Candida glabrata MY1381 assessed as growth inhibition after 24 hrs by NCCLS broth microdilution method; type: functional; conditions: MY1381, 24 h; for MIC: read-out: MIC100

Structure (SMILES)	MIC (Cryptococcus neoformans)	MIC80 (Candida albicans [2])	MIC (Candida albicans [2])	ED90 (Candida albicans [3])	ED99 (Candida albicans [3])	MIC80 (Candida albicans [4])	MIC (Candida albicans [4])	MIC80 (Clavispora lusitaniae)	MIC (Clavispora lusitaniae)	MIC (Staphylococcus aureus)	MIC80 (Pichia kudriavzevii)	MIC (Pichia kudriavzevii)	MIC80 (Candida albicans [5])	MIC (Candida albicans [5])	MIC80 (Aspergillus fumigatus)	minimal effective concentration (Aspergillus fumigatus)	MIC (Escherichia coli)	MIC80 (Candida parapsilosis)	MIC (Candida parapsilosis)	MIC80 (Candida albicans [7])	other results
CC[C@H](C)C[C@H](C)CCCCCCCCC(=O)N[C@H]1C[C@@H](O)[C@@H](NCCN)NC(=O)[C@@H]2[C@@H](O)CCN2C(=O)[C@H]([C@H](O)CCN)NC(=O)[C@H]([C@H](O)[C@@H](O)c2ccc(O)cc2)NC(=O)[C@@H]2C[C@@H](O)CN2C(=O)[C@H]([C@@H](C)O)NC1=O [CASPOFUNGIN]	16 µg/mL (≈ 14.6 µM)	1 µg/mL (≈ 0.915 µM)	> 32 µg/mL	0.02 mg/kg/day	0.15 mg/kg/day	< 0.03 µg/mL	0.125 µg/mL (≈ 0.114 µM)	< 0.03 µg/mL	0.5 µg/mL (≈ 0.457 µM)	32 µg/mL (≈ 29.3 µM)	0.25 µg/mL (≈ 0.229 µM)	2 µg/mL (≈ 1.83 µM)	0.125 µg/mL	8 µg/mL	< 0.03 µg/mL	> 32 µg/mL	> 32 µg/mL	0.25 µg/mL (≈ 0.229 µM)	> 32 µg/mL	< 0.03 µg/mL	MIC (Candida albicans [1]): 64 µg/mL (≈ 58.5 µM); IC50 [6]: > 9.2 µM; IC50 (Beta-1,3-glucan synthase): 0.00024 µM; MIC (Candida albicans [7]): 0.06 µg/mL (≈ 0.0549 µM); MIC80 (Candida albicans [8]): 2 µg/mL (≈ 1.83 µM); MIC (Candida albicans [8]): > 32 µg/mL; MIC80 [9]: 0.25 µg/mL (≈ 0.229 µM); MIC [9]: 1 µg/mL (≈ 0.915 µM); IC50 [10]: > 92 µM; MIC80 (Nakaseomyces glabratus): 0.06 µg/mL (≈ 0.0549 µM); MIC (Nakaseomyces glabratus): 0.25 µg/mL (≈ 0.229 µM)
CC[C@H](C)C[C@H](C)CCCCCCCCC(=O)N[C@H]1C[C@@H](O)[C@@H](O)NC(=O)[C@@H]2[C@@H](O)CCN2C(=O)[C@H]([C@H](O)CC(N)=O)NC(=O)[C@H]([C@H](O)[C@@H](O)c2ccc(O)cc2)NC(=O)[C@@H]2C[C@@H](O)CN2C(=O)[C@H]([C@@H](C)O)NC1=O ({Tetradecanoyl(10R,12S-Me2)}-[Orn(4R-OH,5R-OH)]T[Hyp][hTyr(3S-OH,4S-OH)][Gln(3R-OH)][Pro(3S-OH)]; lactam 1-C)	> 32 µg/mL	16 µg/mL (≈ 15 µM)	32 µg/mL (≈ 30 µM)	2.71 mg/kg/day	13 mg/kg/day	< 0.03 µg/mL	0.5 µg/mL (≈ 0.469 µM)	1 µg/mL (≈ 0.939 µM)	4 µg/mL (≈ 3.76 µM)	> 32 µg/mL	8 µg/mL (≈ 7.51 µM)	32 µg/mL (≈ 30 µM)	16 µg/mL	32 µg/mL	4 µg/mL (≈ 3.76 µM)	> 32 µg/mL	> 32 µg/mL	8 µg/mL (≈ 7.51 µM)	> 32 µg/mL	0.125 µg/mL (≈ 0.117 µM)	MIC (Candida albicans [7]): 0.5 µg/mL (≈ 0.469 µM); MIC (Candida albicans [8]): > 32 µg/mL; MIC80 [9]: 4 µg/mL (≈ 3.76 µM); MIC [9]: > 32 µg/mL; MIC (Nakaseomyces glabratus): 4 µg/mL (≈ 3.76 µM)
